Data published in ChEMBL document CHEMBL1201862, “PubChem BioAssay data set” (2004).
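Grown in 96-well plates, cells were treated for 48 hours with each compound at five concentrations. Insufficient inhibition: endpoint recorded as highest concentration tested. Abbreviation: GI50, concentration required for 50% inhibition of growth.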 Calls of active or inactive are those of the source. No stated cut-off is given here; in the data, active = GI50 up to about 1.1 µM and inactive = higher.

What was measured:
Assay in all cases: NCI anticancer screen, dose series, 48 h
A549 = tested on: A549
MDA-MB-435 = tested on: MDA-MB-435
U-251 = tested on: U-251
SF-295 = tested on: SF-295
IGROV-1 = tested on: IGROV-1
HL-60 = tested on: HL-60
NCI-H522 = tested on: NCI-H522
HOP-92 = tested on: HOP-92
HOP-62 = tested on: HOP-62
PC-3 = tested on: PC-3
CAKI-1 = tested on: CAKI-1
SW-620 = tested on: SW-620
SN12C = tested on: SN12C
LOX IMVI = tested on: LOX IMVI
SF-539 = tested on: SF-539
KM12 = tested on: KM12
UACC-257 = tested on: UACC-257
DU-145 = tested on: DU-145
UACC-62 = tested on: UACC-62
786-0 = tested on: 786-0

Structure (SMILES) | GI50 (A549) | GI50 (MDA-MB-435) | GI50 (U-251) | GI50 (SF-295) | GI50 (IGROV-1) | GI50 (HL-60) | GI50 (NCI-H522) | GI50 (HOP-92) | GI50 (HOP-62) | GI50 (PC-3) | GI50 (CAKI-1) | GI50 (SW-620) | GI50 (SN12C) | GI50 (LOX IMVI) | GI50 (SF-539) | GI50 (KM12) | GI50 (UACC-257) | GI50 (DU-145) | GI50 (UACC-62) | GI50 (786-0)
C=C1C(=O)OC2CC(C)C3CC(O)OC(OCC)C3(C)CC12 (stereo not given) | 41.6 µM (inactive) | 18 µM (inactive) | 17.1 µM (inactive) | 26.6 µM (inactive) | 19.3 µM (inactive) | 1.14 µM (inactive) | 7.03 µM (inactive) | 16 µM (inactive) | 20.9 µM (inactive) | 19.9 µM (inactive) | 17.8 µM (inactive) | 6.85 µM (inactive) | 15.8 µM (inactive) | 6.01 µM (inactive) | 18.1 µM (inactive) | 20.6 µM (inactive) | 16.3 µM (inactive) | 33.6 µM (inactive) | > 37.6 µM (inactive) | 10.2 µM (inactive)
CS(=N)(=O)CCC(N)P(=O)(O)O (stereo not given) | > 100 µM (inactive) | > 100 µM (inactive) | > 100 µM (inactive) | > 100 µM (inactive) | > 100 µM (inactive) | > 100 µM (inactive) | > 100 µM (inactive) | > 100 µM (inactive) | > 100 µM (inactive) | > 100 µM (inactive) | > 100 µM (inactive) | > 100 µM (inactive) | > 100 µM (inactive) | > 100 µM (inactive) | > 100 µM (inactive) | > 100 µM (inactive) | > 100 µM (inactive) | > 100 µM (inactive) | > 100 µM (inactive) | > 100 µM (inactive)
COc1ccc(C(NCCNC(c2ccc(OC)c(OC)c2)c2cc3c(cc2O)OCO3)c2cc3c(cc2O)OCO3)cc1OC (stereo not given) | 12.2 µM (inactive) | 1.87 µM (inactive) | 2.87 µM (inactive) | 5.32 µM (inactive) | 2.72 µM (inactive) | 1.71 µM (inactive) | 1.74 µM (inactive) | 6.71 µM (inactive) | 8.18 µM (inactive) | 2.47 µM (inactive) | 2.64 µM (inactive) | 1.29 µM (inactive) | 1.92 µM (inactive) | 1.8 µM (inactive) | 2.27 µM (inactive) | 2.67 µM (inactive) | 4.26 µM (inactive) | 2.8 µM (inactive) | 2.53 µM (inactive) | 1.82 µM (inactive)
CCCCc1ccc(Nc2nc(SC)c3[nH]cnc3n2)cc1 | > 100 µM (inactive) | 5.33 µM (inactive) | 26.2 µM (inactive) | > 47.9 µM (inactive) | 24.7 µM (inactive) | 3.43 µM (inactive) | 20.6 µM (inactive) | 15.5 µM (inactive) | 10.2 µM (inactive) | > 100 µM (inactive) | 16.9 µM (inactive) | 24.5 µM (inactive) | > 84.9 µM (inactive) | > 46.6 µM (inactive) | 36.6 µM (inactive) | 17.9 µM (inactive) | > 100 µM (inactive) | > 100 µM (inactive) | 45.5 µM (inactive) | 16.4 µM (inactive)
COc1ccccc1NC(=S)N/N=C(/c1ccccc1)c1ccccn1 | 0.141 µM (active) | 0.356 µM (active) | 0.0635 µM (active) | 0.261 µM (active) | 0.0225 µM (active) | < 0.0131 µM (active) | 0.499 µM (active) | 0.522 µM (active) | 0.251 µM (active) | < 0.0142 µM (active) | < 0.0421 µM (active) | 0.021 µM (active) | 0.685 µM (active) | 0.0254 µM (active) | 1.37 µM (inactive) | 0.151 µM (active) | < 0.0167 µM (active) | 0.325 µM (active) | 0.273 µM (active) | 0.103 µM (active)
N/N=C(/CC(O)(C(F)(F)F)C(F)(F)F)c1ccccc1 | > 10 µM (inactive) | > 10 µM (inactive) | > 10 µM (inactive) | > 10 µM (inactive) | > 10 µM (inactive) | > 10 µM (inactive) | > 10 µM (inactive) | > 10 µM (inactive) | > 10 µM (inactive) | > 10 µM (inactive) | > 10 µM (inactive) | > 10 µM (inactive) | > 10 µM (inactive) | > 10 µM (inactive) | > 10 µM (inactive) | > 10 µM (inactive) | > 10 µM (inactive) | > 10 µM (inactive) | > 10 µM (inactive) | > 10 µM (inactive)
COc1ccc(C2C3=C(COC3=O)OC(C)(C)Oc3cc4c(cc32)OCO4)cc1OC (stereo not given) | 36.8 µM (inactive) | 17.3 µM (inactive) | 39.1 µM (inactive) | 29 µM (inactive) | 36.9 µM (inactive) | 29.2 µM (inactive) | 32.4 µM (inactive) | 37.5 µM (inactive) | 63.5 µM (inactive) | 28.1 µM (inactive) | 43.6 µM (inactive) | 33.3 µM (inactive) | 51.9 µM (inactive) | 40.8 µM (inactive) | 29.1 µM (inactive) | 24 µM (inactive) | 39.4 µM (inactive) | 42.1 µM (inactive) | 34 µM (inactive) | 41.9 µM (inactive)
Cc1cc(N(CCC#N)CCC#N)ccc1C(=N/NC(=O)c1cc(Cl)ccc1O)/N=N/c1cccc([N+](=O)[O-])c1 | 28 µM (inactive) | 35.4 µM (inactive) | 35.9 µM (inactive) | 35.9 µM (inactive) | 11.3 µM (inactive) | 14.7 µM (inactive) | 17.3 µM (inactive) | 38.2 µM (inactive) | 24.2 µM (inactive) | 22.1 µM (inactive) | 27 µM (inactive) | 39.3 µM (inactive) | 28.3 µM (inactive) | 15.2 µM (inactive) | 44.5 µM (inactive) | 23.1 µM (inactive) | 31.2 µM (inactive) | 27.2 µM (inactive) | 14.1 µM (inactive) | 29 µM (inactive)
COC(=O)C(C)(NC(=O)C(CC(=O)OC(C)(C)C)NC(=O)OC(C)(C)C)c1ccccc1 (stereo not given) | > 100 µM (inactive) | > 100 µM (inactive) | > 100 µM (inactive) | 81.8 µM (inactive) | > 100 µM (inactive) | 81.7 µM (inactive) | > 100 µM (inactive) | 63 µM (inactive) | > 100 µM (inactive) | > 100 µM (inactive) | > 100 µM (inactive) | > 100 µM (inactive) | > 100 µM (inactive) | > 100 µM (inactive) | > 100 µM (inactive) | > 100 µM (inactive) | > 100 µM (inactive) | > 100 µM (inactive) | > 100 µM (inactive) | > 100 µM (inactive)
COc1ccc(C2=C(Cl)C(=O)N(c3ccc(OC)cc3OC)C(=O)C2(Cl)Cl)cc1 | > 100 µM (inactive) | 16.9 µM (inactive) | 16.6 µM (inactive) | 24.3 µM (inactive) | 18.5 µM (inactive) | 25.2 µM (inactive) | 14.3 µM (inactive) | 9.77 µM (inactive) | 18.5 µM (inactive) | 13.2 µM (inactive) | 11.9 µM (inactive) | 14.8 µM (inactive) | < 0.01 µM (active) | 14.7 µM (inactive) | 10.4 µM (inactive) | 17.1 µM (inactive) | 17.8 µM (inactive) | 17.3 µM (inactive) | 14.5 µM (inactive) | 15.6 µM (inactive)
